One assay deals with human orexin 1 receptor (Homo sapiens (Human), UniProt O43613). Briefly: Human orexin 1 receptor radioligand binding (competitive, [3H]-SB674042, CHO cell preparations).
In another assay the target is human orexin 2 receptor (Homo sapiens (Human), UniProt O43614). Briefly: Human orexin 2 receptor radioligand binding (competitive, [3H]-EMPA, HEK293 cell preparations).
The target of a further assay is rat orexin 1 receptor (Rattus norvegicus, UniProt P56718). The experiment in a line: Rat orexin 1 receptor radioligand binding (competitive, [3H]-SB674042, HEK293 cell preparations).
Where [1] appears, read: human orexin 1 receptor, [3H]-SB674042 competition binding, read-out: hOX1 Ki (nm).
Setting [2] is: human orexin 2 receptor, [3H]-EMPA competition binding, read-out: hOX2 Ki (nm).
[3] abbreviates: rat orexin 1 receptor, [3H]-SB674042 competition binding, read-out: rOX1 Ki (nm).

Like-named read-outs stand apart in the source and are kept apart here. Some results are limits rather than exact numbers.

Sequence of human orexin 2 receptor (O43614 whole entry): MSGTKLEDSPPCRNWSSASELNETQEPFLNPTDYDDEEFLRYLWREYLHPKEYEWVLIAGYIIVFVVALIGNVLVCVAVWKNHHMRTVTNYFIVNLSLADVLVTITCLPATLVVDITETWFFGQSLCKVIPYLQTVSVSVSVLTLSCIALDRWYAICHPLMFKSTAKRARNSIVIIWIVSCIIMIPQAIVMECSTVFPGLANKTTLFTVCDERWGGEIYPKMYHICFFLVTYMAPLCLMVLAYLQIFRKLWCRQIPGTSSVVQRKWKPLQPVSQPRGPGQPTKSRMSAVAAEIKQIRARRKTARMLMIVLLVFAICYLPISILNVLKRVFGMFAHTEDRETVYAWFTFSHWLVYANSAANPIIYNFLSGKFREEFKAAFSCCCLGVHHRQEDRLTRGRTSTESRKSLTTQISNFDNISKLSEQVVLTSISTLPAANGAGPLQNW
Sequence of human orexin 1 receptor (O43613 whole entry): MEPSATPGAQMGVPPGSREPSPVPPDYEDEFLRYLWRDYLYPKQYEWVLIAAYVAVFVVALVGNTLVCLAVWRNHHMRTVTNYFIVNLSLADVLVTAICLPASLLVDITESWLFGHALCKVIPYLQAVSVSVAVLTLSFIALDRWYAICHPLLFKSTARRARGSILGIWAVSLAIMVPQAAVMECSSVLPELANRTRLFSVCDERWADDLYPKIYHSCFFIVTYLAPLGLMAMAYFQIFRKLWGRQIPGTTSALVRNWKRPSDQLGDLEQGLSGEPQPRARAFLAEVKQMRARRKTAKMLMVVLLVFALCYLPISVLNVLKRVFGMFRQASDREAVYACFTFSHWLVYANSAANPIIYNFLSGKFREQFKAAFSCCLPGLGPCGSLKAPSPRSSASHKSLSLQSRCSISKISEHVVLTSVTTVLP

With `Cc1ccc(C(=O)N2C3CCC2C(COc2ccc(F)cn2)C3)c(-c2ncccn2)c1` (racemic) [Example 122, (±)-(2-(((5-fluoropyridin-2-yl)oxy)methyl)-7-azabicyclo[2.2.1]heptan-7-yl)(4-methyl-2-(pyrimidin-2-yl)phenyl)methanone], the Ki on human orexin 1 receptor (setting [1]) was determined as 154 nM; at human orexin 2 receptor (setting [2]), 1000 nM; at rat orexin 1 receptor (setting [3]), 118 nM.
Consider `Cc1cnc(N[C@@H]2C[C@H]3CC[C@@H]2N3C(=O)c2cccc(F)c2-c2ncccn2)cn1` [Example 278, (3-fluoro-2-(pyrimidin-2-yl)phenyl)((1S,2R,4R)-2-((5-methylpyrazin-2-yl)amino)-7-azabicyclo[2.2.1]heptan-7-yl)methanone], for which the results for the Ki on human orexin 1 receptor (read-out: hOX1 Ki (nm)), on human orexin 2 receptor (setting [2]) and on rat orexin 1 receptor (read-out: rOX1 Ki (nm)) were 77 nM, 934 nM and 87 nM, respectively.
For the compound `O=C(c1ccccc1-n1nccn1)N1C2CCC1C(Nc1nc3cc(Cl)ccc3o1)C2` (racemic) [Example 216, (±)-(2-(2H-1,2,3-triazol-2-yl)phenyl)(2-((5-chlorobenzo[d]oxazol-2-yl)amino)-7-azabicyclo[2.2.1]heptan-7-yl)methanone], the values for the Ki at human orexin 1 receptor (hOX1 Ki (nm)), on human orexin 2 receptor (setting [2]) and at rat orexin 1 receptor (rOX1 Ki (nm)) were 71 nM, 475 nM and 99 nM, respectively.
`O=C(c1cc(F)ccc1-c1ccn[nH]1)N1C2CCC1C(COc1ccc(F)cn1)C2` (racemic) [Example 109, (±)-(5-fluoro-2-(1H-pyrazol-5-yl)phenyl)(2-(((5-fluoropyridin-2-yl)oxy)methyl)-7-azabicyclo[2.2.1]heptan-7-yl)methanone]: the inhibition constant (Ki) at human orexin 1 receptor (hOX1 Ki (nm)) was 20 nM; at human orexin 2 receptor (hOX2 Ki (nm)) it was 99 nM; at rat orexin 1 receptor (rOX1 Ki (nm)), 29 nM.
Turning to `Cc1ccc(N2CCCC2)c(C(=O)N2C3CCC2C(COc2ccc(F)cn2)C3)n1` (racemic) [Example 68, (±)-(2-(((5-fluoropyridin-2-yl)oxy)methyl)-7-azabicyclo[2.2.1]heptan-7-yl)(6-methyl-3-(pyrrolidin-1-yl)pyridin-2-yl)methanone], the Ki stood at 22 nM on human orexin 1 receptor (setting [1]), 576 nM on human orexin 2 receptor (setting [2]) and 27 nM on rat orexin 1 receptor (setting [3]).
With `O=C(c1cccc(F)c1-c1ncco1)N1[C@@H]2CC[C@H]1[C@H](Nc1cnc(C(F)(F)F)cn1)C2` [Example 260, (3-fluoro-2-(oxazol-2-yl)phenyl)((1S,2R,4R)-2-((5-(trifluoromethyl)pyrazin-2-yl)amino)-7-azabicyclo[2.2.1]heptan-7-yl)methanone], the values for the Ki at human orexin 1 receptor (read-out: hOX1 Ki (nm)), on human orexin 2 receptor (setting [2]) and at rat orexin 1 receptor (read-out: rOX1 Ki (nm)) were 10 nM, 519 nM and 14 nM, respectively.
In the case of `O=C(c1c(F)cccc1-n1nccn1)N1C2CCC1C(COc1ccc(F)cn1)C2` (racemic) [Example 115, (±)-(2-fluoro-6-(2H-1,2,3-triazol-2-yl)phenyl)(2-(((5-fluoropyridin-2-yl)oxy)methyl)-7-azabicyclo[2.2.1]heptan-7-yl)methanone], the Ki was 78 nM at human orexin 1 receptor (hOX1 Ki (nm)), 108 nM on human orexin 2 receptor (hOX2 Ki (nm)) and 57 nM at rat orexin 1 receptor (rOX1 Ki (nm)).
Consider `O=C(c1cc(CO)ccc1-n1nccn1)N1C2CCC1C(COc1ccc(F)cn1)C2` (racemic) [Example 126, (±)-(2-(((5-fluoropyridin-2-yl)oxy)methyl)-7-azabicyclo[2.2.1]heptan-7-yl)(5-(hydroxymethyl)-2-(2H-1,2,3-triazol-2-yl)phenyl)methanone], for which the figures for the Ki on human orexin 1 receptor (setting [1]), at human orexin 2 receptor (setting [2]) and on rat orexin 1 receptor (setting [3]) were 27 nM, 231 nM and 23 nM, respectively.
Taken in the same sequence, the figures for `CCOc1ccc2cccnc2c1C(=O)N1C2CCC1C(COc1ccccn1)C2` (racemic) [Example 75, (±)-(7-ethoxyquinolin-8-yl)(2-((pyridin-2-yloxy)methyl)-7-azabicyclo[2.2.1]heptan-7-yl)methanone] were 7 nM, 220 nM and 18 nM.
For the compound `Cc1ccc(C(=O)N2[C@@H]3CC[C@H]2[C@H](Nc2cnc(C(F)(F)F)cn2)C3)c(-n2ccnn2)n1` [Example 248, (6-methyl-2-(1H-1,2,3-triazol-1-yl)pyridin-3-yl)((1S,2R,4R)-2-((5-(trifluoromethyl)pyrazin-2-yl)amino)-7-azabicyclo[2.2.1]heptan-7-yl)methanone], the Ki was 119 nM on human orexin 1 receptor (setting [1]), over 10000 nM on human orexin 2 receptor (setting [2]) and 153 nM at rat orexin 1 receptor (setting [3]).
With `O=C(c1cccc(F)c1-c1ncco1)N1[C@@H]2CC[C@H]1[C@H](Nc1ncc(C(F)(F)F)cn1)C2` [Example 284, (3-fluoro-2-(oxazol-2-yl)phenyl)((1S,2R,4R)-2-((5-(trifluoromethyl)pyrimidin-2-yl)amino)-7-azabicyclo[2.2.1]heptan-7-yl)methanone], the values for the Ki at human orexin 1 receptor (read-out: hOX1 Ki (nm)), on human orexin 2 receptor (setting [2]) and at rat orexin 1 receptor (read-out: rOX1 Ki (nm)) were 27 nM, 1700 nM and 29 nM, respectively.
Regarding `Cc1ccnc(C(=O)N2C3CCC2C(COc2ccccn2)C3)c1-n1nccn1` (racemic) [Example 72, (±)-(4-methyl-3-(2H-1,2,3-triazol-2-yl)pyridin-2-yl)(2-((pyridin-2-yloxy)methyl)-7-azabicyclo[2.2.1]heptan-7-yl)methanone], the values for the Ki on human orexin 1 receptor (setting [1]), on human orexin 2 receptor (setting [2]) and on rat orexin 1 receptor (setting [3]) were 162 nM, 2400 nM and 137 nM, respectively.
Take `Cc1ccc(-c2ncco2)c(C(=O)N2C3CCC2C(COc2ccc(F)cn2)C3)n1` (racemic) [Example 63, (±)-(2-(((5-fluoropyridin-2-yl)oxy)methyl)-7-azabicyclo[2.2.1]heptan-7-yl)(6-methyl-3-(oxazol-2-yl)pyridin-2-yl)methanone]: the Ki was determined as 25 nM on human orexin 1 receptor (setting [1]), 339 nM on human orexin 2 receptor (setting [2]) and 25 nM on rat orexin 1 receptor (setting [3]).
On to `O=C(c1ccc(F)cc1-c1ncccn1)N1[C@@H]2CC[C@H]1[C@H](Nc1cnc(C(F)(F)F)cn1)C2` [Example 267, (4-fluoro-2-(pyrimidin-2-yl)phenyl)((1S,2R,4R)-2-((5-(trifluoromethyl)pyrazin-2-yl)amino)-7-azabicyclo[2.2.1]heptan-7-yl)methanone], for which the Ki on human orexin 1 receptor (read-out: hOX1 Ki (nm)) stood at 61 nM; on human orexin 2 receptor (setting [2]), 1700 nM; at rat orexin 1 receptor (read-out: rOX1 Ki (nm)) it was 33 nM.
`COc1cccc(-n2nccn2)c1C(=O)N1[C@@H]2CC[C@H]1[C@H](Nc1cnc(C(F)(F)F)cn1)C2` [Example 242, (2-methoxy-6-(2H-1,2,3-triazol-2-yl)phenyl)((1S,2R,4R)-2-((5-(trifluoromethyl)pyrazin-2-yl)amino)-7-azabicyclo[2.2.1]heptan-7-yl)methanone]: the Ki at human orexin 1 receptor (read-out: hOX1 Ki (nm)) is 41 nM; at human orexin 2 receptor (setting [2]), 239 nM; on rat orexin 1 receptor (read-out: rOX1 Ki (nm)), 31 nM.
`Cc1cccc(C(=O)N2[C@@H]3CC[C@H]2[C@H](Nc2ncc(C(F)(F)F)cn2)C3)c1I` [Example 276, (2-iodo-3-methylphenyl)((1S,2R,4R)-2-((5-(trifluoromethyl)pyrimidin-2-yl)amino)-7-azabicyclo[2.2.1]heptan-7-yl)methanone]: the results for the inhibition constant Ki at human orexin 1 receptor (read-out: hOX1 Ki (nm)), on human orexin 2 receptor (setting [2]) and at rat orexin 1 receptor (setting [3]) were 97 nM, 2500 nM and 133 nM, respectively.
In the case of `O=C(c1ncccc1-n1nccn1)N1[C@@H]2CC[C@H]1[C@H](Nc1cnc(C(F)(F)F)cn1)C2` [Example 288, (3-(2H-1,2,3-triazol-2-yl)pyridin-2-yl)((1S,2R,4R)-2-((5-(trifluoromethyl)pyrazin-2-yl)amino)-7-azabicyclo[2.2.1]heptan-7-yl)methanone], the Ki at human orexin 1 receptor (setting [1]) is 128 nM; on human orexin 2 receptor (setting [2]), 1900 nM; on rat orexin 1 receptor (read-out: rOX1 Ki (nm)), 94 nM.
`Cc1ccc(-n2nccn2)c(C(=O)N2C3CCC2C(Nc2cnc4ccccc4n2)C3)n1` (racemic) [Example 205, (±)-(6-methyl-3-(2H-1,2,3-triazol-2-yl)pyridin-2-yl)(2-(quinoxalin-2-ylamino)-7-azabicyclo[2.2.1]heptan-7-yl)methanone]: the Ki stood at 50 nM on human orexin 1 receptor (hOX1 Ki (nm)), 168 nM on human orexin 2 receptor (hOX2 Ki (nm)) and 79 nM at rat orexin 1 receptor (rOX1 Ki (nm)).
On to `Cc1ccc(-c2ncccn2)c(C(=O)N2C3CCC2C(COc2ccc(F)cn2)C3)c1` (racemic) [Example 33, (±)-(2-(((5-fluoropyridin-2-yl)oxy)methyl)-7-azabicyclo[2.2.1]heptan-7-yl)(5-methyl-2-(pyrimidin-2-yl)phenyl)methanone], for which the Ki came out at 9 nM at human orexin 1 receptor (setting [1]), 39 nM on human orexin 2 receptor (setting [2]) and 15 nM at rat orexin 1 receptor (setting [3]).
In the case of `O=C(c1cccc(F)c1-n1nccn1)N1C2CCC1C(COc1ccc(F)cn1)C2` (racemic) [Example 117, (±)-(3-fluoro-2-(2H-1,2,3-triazol-2-yl)phenyl)(2-(((5-fluoropyridin-2-yl)oxy)methyl)-7-azabicyclo[2.2.1]heptan-7-yl)methanone], the Ki on human orexin 1 receptor (hOX1 Ki (nm)) is 82 nM; at human orexin 2 receptor (setting [2]), 245 nM; on rat orexin 1 receptor (rOX1 Ki (nm)), 62 nM.
In the case of `CCOc1ccc2ccccc2c1C(=O)N1C2CCC1C(COc1ccccn1)C2` (racemic) [Example 89, (±)-(2-ethoxynaphthalen-1-yl)(2-((pyridin-2-yloxy)methyl)-7-azabicyclo[2.2.1]heptan-7-yl)methanone], the inhibition constant Ki at human orexin 1 receptor (setting [1]) was found to be 10 nM; on human orexin 2 receptor (setting [2]), 38 nM; on rat orexin 1 receptor (setting [3]), 11 nM.
For `Cn1cc(-c2ccccc2)c(C(=O)N2C3CCC2C(COc2ccccn2)C3)n1` (racemic) [Example 77, (±)-(1-methyl-4-phenyl-1H-pyrazol-3-yl)(2-((pyridin-2-yloxy)methyl)-7-azabicyclo[2.2.1]heptan-7-yl)methanone], the Ki on human orexin 1 receptor (setting [1]) amounted to 66 nM; on human orexin 2 receptor (hOX2 Ki (nm)) it was 867 nM; at rat orexin 1 receptor (setting [3]) it was 103 nM.
As to `Cc1cnn(-c2ccc(C)nc2C(=O)N2C3CCC2C(COc2ccccn2)C3)c1` (racemic) [Example 96, (±)-(6-methyl-3-(4-methyl-1H-pyrazol-1-yl)pyridin-2-yl)(2-((pyridin-2-yloxy)methyl)-7-azabicyclo[2.2.1]heptan-7-yl)methanone], the Ki is 76 nM at human orexin 1 receptor (setting [1]), 950 nM at human orexin 2 receptor (setting [2]) and 70 nM at rat orexin 1 receptor (setting [3]).

What is called Ki is the equilibrium dissociation constant of an inhibitor or competing ligand from its target.

(Values after patent US9062078B2, “Substituted 7-azabicyles and their use as orexin receptor modulators” (priority 2013, dated 2015).)
